Laboratory results as given in patent US12479843B2, “Spiro ring-containing quinazoline compounds” (WIGEN BIOMEDICINE TECHNOLOGY (SHANGHAI) CO., LTD., priority 2019, dated 2025).

Columns and labels:
pERK level in H358 cells = experiment: pERK and ERK protein content assay in H358 cells (ELISA); format: cell-based; settings: Homo sapiens, NCI-H358, compound 1 μM, 24 h, pERK/ERK ratio compared with DMSO group, read-out: Inhibition rate (%) of pERK level
In short: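 H358 cells grown one day, then treated 24 h with compound at 1 μM. pERK and ERK in lysates measured by ELISA; pERK/ERK ratio expressed as percent inhibition versus DMSO.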

H358 cells = experiment: Antiproliferative activity against H358 cells (Cell Titer Glow, ultra-low attachment plate); format: cell-based; settings: Homo sapiens, NCI-H358, 72 h, 96-well ultra-low attachment plate, three days after addition of compound, Cell Titer Glow
Procedure: 2500 H358 cells were seeded in a 96-well ultra-low attachment plate (corning, 7007). After one day of growth, a serially diluted compound (a maximum concentration of 5 μM, 5-fold dilution, a total of five doses) was added. Three days after the addition of the compound, Cell Titer Glow (Promega, G9681) was added to evaluate pellet growth, and the IC50 value was calculated.

Structure (SMILES) | inhibition at 1 µM (pERK level in H358 cells) [%] | IC50 (H358 cells) [µM]
C=CC(=O)N1CC2(CCN(c3nc(OC4CCN(CCOC)CC4)nc4c(OCC(F)(F)F)c(-c5c(O)cccc5F)c(C5CC5)cc34)CC2)C1 [Compound 45] | > 90 | < 0.3
C=CC(=O)N1CC2(CCN(c3nc(N4CC[C@@H](N5CC[C@@H](C)C5)C4)nc4c(OCC(F)(F)F)c(-c5c(C)ccc6[nH]ncc56)c(C5CC5)cc34)CC2)C1 [Compound 301] | > 90 | < 0.3
C=CC(=O)N1CC2(CCN(c3nc(N4CC[C@@H](N5CC(OC)C5)C4)nc4c(OCC(F)(F)F)c(-c5c(C)ccc6[nH]ncc56)c(C5CC5)cc34)CC2)C1 [Compound 204] | > 90 | 0.3 to 1
C=CC(=O)N1CC2(CCN(c3nc(N4CCC5(CC4)CC(N)C5)nc4c(OCC(F)(F)F)c(-c5c(C)ccc6[nH]ncc56)c(C5CC5)cc34)CC2)C1 [Compound 162] | > 90 | < 0.3
C=CC(=O)N1CC2(CCN(c3nc(N4CC5(CN(CCOC)C5)C4)nc4c(OCC(F)(F)F)c(-c5c(C)ccc6[nH]ncc56)c(C5CC5)cc34)CC2)C1 [Compound 71] | > 90 | < 0.3
C=CC(=O)N1CC2(CCN(c3nc(N4CC(N5CC[C@@H](N(C)C)C5)C4)nc4c(OCC(F)(F)F)c(-c5c(C)ccc6[nH]ncc56)c(C5CC5)cc34)CC2)C1 [Compound 256] | > 90 | < 0.3
C=CC(=O)N1CC2(CCN(c3nc(N4CC(N5CC[C@H](C#N)C5)C4)nc4c(OCC(F)(F)F)c(-c5c(C)ccc6[nH]ncc56)c(C5CC5)cc34)CC2)C1 [Compound 257] | > 90 | 0.3 to 1
C=CC(=O)N1CC2(CCN(c3nc(N4CC(N5C[C@H](O)[C@@H](F)C5)C4)nc4c(OCC(F)(F)F)c(-c5c(C)ccc6[nH]ncc56)c(C5CC5)cc34)CC2)C1 [Compound 261] | > 90 | < 0.3
C=C(C)C(=O)N1CC2(CCN(c3nc(OC4CCN(CCOC)CC4)nc4c(OCC(F)(F)F)c(-c5c(C)ccc6[nH]ncc56)c(C5CC5)cc34)CC2)C1 [Compound 17] | > 90 | < 0.3
C=CC(=O)N1CC2(CCN(c3nc(N4CC(N5CC(C#N)C5)C4)nc4c(OCC(F)(F)F)c(-c5c(C)ccc6[nH]ncc56)c(C5CC5)cc34)CC2)C1 [Compound 238] | > 90 | 0.3 to 1
C=C(F)C(=O)N1CC2(CCN(c3nc(O[C@H]4CCN(CCOC)C4)nc4c(OCC(F)(F)F)c(-c5c(C)ccc6[nH]ncc56)c(C5CC5)cc34)CC2)C1 [Compound 65] | > 90 | < 0.3
C=C(F)C(=O)N1CC2(CCN(c3nc(N4CC5(CN(C)C5)C4)nc4c(OCC(F)(F)F)c(-c5c(C)ccc6[nH]ncc56)c(C5CC5)cc34)CC2)C1 [Compound 70] | > 90 | 0.3 to 1
C=CC(=O)N1CC2(CCN(c3nc(N(C)CCN4CCCC4)nc4c(OCC(F)(F)F)c(-c5c(C)ccc6[nH]ncc56)c(C5CC5)cc34)CC2)C1 [Compound 232] | > 90 | < 0.3
C=CC(=O)N1CC2(CCN(c3nc(N4CC5(C4)[C@@H](F)CCN5C)nc4c(OCC(F)(F)F)c(-c5c(C)ccc6[nH]ncc56)c(C5CC5)cc34)CC2)C1 [Compound 273] | > 90 | < 0.3
C=CC(=O)N1CC2(CCN(c3nc(N4CC(N5CCC[C@H]5CO)C4)nc4c(OCC(F)(F)F)c(-c5c(C)ccc6[nH]ncc56)c(C5CC5)cc34)CC2)C1 [Compound 252] | > 90 | < 0.3
C=C(F)C(=O)N1CC2(CCN(c3nc(N4CC5(CCN(CC(C)CC)CC5)C4)nc4c(OCC(F)(F)F)c(-c5c(C)ccc6[nH]ncc56)c(C5CC5)cc34)CC2)C1 (centres unmarked) [Compound 82] | > 90 | < 0.3
C=CC(=O)N1CC2(CCN(c3nc(N4CC(N5CCCC5)C4)nc4c(OCC(F)(F)F)c(-c5c(C)c(C)cc6[nH]ncc56)c(C5CC5)cc34)CC2)C1 [Compound 218] | > 90 | < 0.3
C=C(F)C(=O)N1CC2(CCN(c3nc(N4CC5(CCN(C6CC6)CC5)C4)nc4c(OCC(F)(F)F)c(-c5c(C)ccc6[nH]ncc56)c(C5CC5)cc34)CC2)C1 [Compound 80] | 50 to 90 | 0.3 to 1
C=CC(=O)N1CC2(CCN(c3nc(OC4CCC5(CC4)CN(C)C5)nc4c(OCC(F)(F)F)c(-c5c(C)ccc6[nH]ncc56)c(C5CC5)cc34)CC2)C1 [Compound 135] | 50 to 90 | 0.3 to 1

Structure (SMILES) | inhibition at 1 µM (pERK level in H358 cells) [%] | IC50 (H358 cells) [µM]
C=CC(=O)N1CC2(CCN(c3nc(N4CC(N5CC[C@H](C)C5)C4)nc4c(OCC(F)(F)F)c(-c5c(C)ccc6[nH]ncc56)c(C=C)cc34)CC2)C1 [Compound 339] | > 90 | < 0.3
C=CC(=O)N1CC2(CCN(c3nc(N4CC[C@H](N5CC(F)(F)C5)C4)nc4c(OCC(F)(F)F)c(-c5c(C)ccc6[nH]ncc56)c(C5CC5)cc34)CC2)C1 [Compound 205] | 50 to 90 | 0.3 to 1
C=CC(=O)N1CC2(CCN(c3nc(N4CC[C@H](N(C)C)C4)nc4c(OCC(F)(F)F)c(-c5c(C)ccc6[nH]ncc56)c(C5CC5)cc34)CC2)C1 [Compound 185] | > 90 | < 0.3
C=C(F)C(=O)N1CC2(CCN(c3nc(OC4CCN(CCOC)CC4)nc4c(OCC(F)(F)F)c(-c5c(C)ccc6nc[nH]c(=O)c56)c(C5CC5)cc34)CC2)C1 [Compound 44] | > 90 | < 0.3
C=CC(=O)N1CC2(CCN(c3nc(N4CCC5(CCN(C)C5)CC4)nc4c(OCC(F)(F)F)c(-c5c(C)ccc6[nH]ncc56)c(C5CC5)cc34)CC2)C1 [Compound 163] | > 90 | < 0.3
C=C(F)C(=O)N1CC2(CCN(c3nc(OC4CCN(C)CC4)nc4c(OCC(F)(F)F)c(-c5c(C)ccc6[nH]ncc56)c(C5CC5)cc34)CC2)C1 [Compound 61] | > 90 | < 0.3
C=C(F)C(=O)N1CC2(CCN(c3nc(OC4CCN(CCOC)CC4)nc4c(OCC(F)(F)F)c(-c5c(N)c(Cl)cc(Cl)c5F)c(C5CC5)cc34)CC2)C1 [Compound 50] | > 90 | < 0.3
C=CC(=O)N1CC2(CCN(c3nc(N4CC(N5CC(OCC(F)(F)F)C5)C4)nc4c(OCC(F)(F)F)c(-c5c(C)ccc6[nH]ncc56)c(C5CC5)cc34)CC2)C1 [Compound 239] | 50 to 90 | 0.3 to 1
C=CC(=O)N1CC2(CCN(c3nc(N4CC5(CC(N6CCC6)C5)C4)nc4c(OCC(F)(F)F)c(-c5c(C)ccc6[nH]ncc56)c(C5CC5)cc34)CC2)C1 [Compound 287] | > 90 | < 0.3
C=CC(=O)N1CC2(CCN(c3nc(N4CC(N5CCC(C)CC5)C4)nc4c(OCC(F)(F)F)c(-c5c(C)ccc6[nH]ncc56)c(C5CC5)cc34)CC2)C1 [Compound 268] | > 90 | < 0.3
C=CC(=O)N1CC2(CCN(c3nc(N4CC(N5CC[C@H](N(C)C)C5)C4)nc4c(OCC(F)(F)F)c(-c5c(C)ccc6[nH]ncc56)c(C5CC5)cc34)CC2)C1 [Compound 255] | > 90 | < 0.3
C=CC(=O)N1CC2(CCN(c3nc(N4CC(N5C[C@H](F)[C@H](OC)C5)C4)nc4c(OCC(F)(F)F)c(-c5c(C)ccc6[nH]ncc56)c(C5CC5)cc34)CC2)C1 [Compound 264] | > 90 | < 0.3
C=C(F)C(=O)N1CC2(CCN(c3nc(N4CC5(CCN(CC(F)(F)F)CC5)C4)nc4c(OCC(F)(F)F)c(-c5c(C)ccc6[nH]ncc56)c(C5CC5)cc34)CC2)C1 [Compound 86] | 50 to 90 | 0.3 to 1
C=C(F)C(=O)N1CC2(CCN(c3nc(OC4CCN(CCOC)CC4)nc4c(OCC(F)(F)F)c(-c5c(C)ccc6[nH]nnc56)c(C5CC5)cc34)CC2)C1 [Compound 40] | > 90 | < 0.3
C=CC(=O)N1CC2(CCN(c3nc(N4CCC5(CCN(CCOC)CC5)CC4)nc4c(OCC(F)(F)F)c(-c5c(C)ccc6[nH]ncc56)c(C5CC5)cc34)CC2)C1 [Compound 107] | 50 to 90 | 0.3 to 1
C=CC(=O)N1CC2(CCN(c3nc(O[C@H]4C[C@@H]5C[C@H]4CS5(=O)=O)nc4c(OCC(F)(F)F)c(-c5c(C)ccc6[nH]ncc56)c(C5CC5)cc34)CC2)C1 [Compound 314] | > 90 | < 0.3
C=CC(=O)N1CC2(CCN(c3nc(N4CC(N5CC(OC)C5)C4)nc4c(OCC(F)(F)F)c(-c5c(C)ccc6[nH]ncc56)c(C5CC5)cc34)CC2)C1 [Compound 144] | > 90 | < 0.3
C=CC(=O)N1CC2(CCN(c3nc(N4CC(N5CCC5)C4)nc4c(OCC(F)(F)F)c(-c5c(C)c(F)cc6[nH]ncc56)c(C5CC5)cc34)CC2)C1 [Compound 219] | > 90 | < 0.3
